Measurements from paper PMC9572521, “Synthesis, Docking Studies and Pharmacological Evaluation of Serotoninergic Ligands Containing a 5-Norbornene-2-Carboxamide Nucleus” (Molecules, 2022).
“Also recorded” adds a separate entry of the source.

Tests used:
5-HT2A receptor = 5-HT2A receptor (Rattus norvegicus, UniProt P14842); experiment: 5-HT2A competition binding assay ([3H]ketanserin, frontal cortex homogenates); conditions: read-out: 5-HT2A Ki (95% CI)
mice [1] = experiment: Forced swim test (FST, Porsolt's test); assay type: in vivo, mouse; conditions: 60 min before the test
Experimental: The experiments were carried out, in the Experimental Medicine Center of Medical University of Lublin, on six-week-old naive male Swiss mice, weighing 24–30 g. The mice were housed in cages, five individuals per cage in an environmentally controlled rooms (ambient temperature 22 ± 1 °C; relative humidity 50–60%; 12 h light/dark cycle, lights on at 8:00). Standard laboratory food(LSM-Agropol-Motycz, Lublin, Poland) and filtered water were available ad libitum. All the experimental procedures were carried out, according to the National Institute of Health Guidelines for the Care and Use of Laboratory Animals and to the European Community Council Directive for the Care and Use of Laboratory Animals of 22 September 2010 (2010/63/EU) and approved by the Local Ethics Committee for Animal Experimentation in Lublin. The investigated compounds (Norbo-4, Norbo-8, Norbo-10, Norbo-14, Norbo-18 and Norbo-20) in all tests were administered intraperitoneally (i.p.), dissolved in dimethyl sulfoxide (DMSO, final concentration of 0.1%) and then diluted by aqueous solution of 0.5% methylcellulose (tylose) and injected 60 min before the tests. […] All compounds were given in a volume of 10 mL/kg to mice. The control animals received an equivalent volume of the solvent at the respective time before the tests. All the experiments were conducted in the light phase between 09.00 a.m. and 14.00 p.m. The experiments were performed by an observer unaware of the treatment administered. The experiment was carried out according to the method of Porsolt et al.. Mice were individually placed in a glass cylinder (25 cm high; 10 cm in diameter) containing water maintained at 23–25 °C, and were left there for 6 min. The total duration of immobility was recorded during the last 4 min of a 6-min test session. A mouse was regarded as immobile when it remained floating on the water, making only small movements to keep its head above the water.

mice [2] = experiment: Spontaneous locomotor activity; assay type: in vivo, mouse
mice [3] = experiment: Rota-rod test (motor coordination); assay type: in vivo, mouse; conditions: 30 mg/kg i.p., 60 min before the test
Experimental: (§1) The experiments were carried out, in the Experimental Medicine Center of Medical University of Lublin, on six-week-old naive male Swiss mice, weighing 24–30 g. The mice were housed in cages, five individuals per cage in an environmentally controlled rooms (ambient temperature 22 ± 1 °C; relative humidity 50–60%; 12 h light/dark cycle, lights on at 8:00). Standard laboratory food(LSM-Agropol-Motycz, Lublin, Poland) and filtered water were available ad libitum. All the experimental procedures were carried out, according to the National Institute of Health Guidelines for the Care and Use of Laboratory Animals and to the European Community Council Directive for the Care and Use of Laboratory Animals of 22 September 2010 (2010/63/EU) and approved by the Local Ethics Committee for Animal Experimentation in Lublin. The investigated compounds (Norbo-4, Norbo-8, Norbo-10, Norbo-14, Norbo-18 and Norbo-20) in all tests were administered intraperitoneally (i.p.), dissolved in dimethyl sulfoxide (DMSO, final concentration of 0.1%) and then diluted by aqueous solution of 0.5% methylcellulose (tylose) and injected 60 min before the tests. […] All compounds were given in a volume of 10 mL/kg to mice. The control animals received an equivalent volume of the solvent at the respective time before the tests. All the experiments were conducted in the light phase between 09.00 a.m. and 14.00 p.m. The experiments were performed by an observer unaware of the treatment administered. The effects of investigated compounds on motor coordination were evaluated in the rota-rod and chimney tests. In the first test, motor impairments were measured, defined as the inability to keep balance on a rotating rod (at constant speed of 18 rpm) for 1 min. In the second test, motor impairments were assessed by mouse inability to climb up the tube backwards (3 cm in inner diameter, 25 cm long) within 60 s. Before the tests, the animals were trained once a day for 3 days. The animals able to stay on the rotating rod or to leave the chimney for 60 s were approved for experiments.

mice [4] = experiment: Chimney test (motor coordination); assay type: in vivo, mouse; conditions: 60 min before the test
Experimental: as §1

human 5-HT2C receptor = biological target: T1, human 5-HT2C receptor (Homo sapiens, UniProt P28335); experiment: 5-HT2C competition binding assay ([3H]mesulergine, transfected cell membranes); conditions: [3H]mesulergine, human 5-HT2C membranes; read-out: 5-HT2C Ki (95% CI)
T1 sequence (P28335 33-458): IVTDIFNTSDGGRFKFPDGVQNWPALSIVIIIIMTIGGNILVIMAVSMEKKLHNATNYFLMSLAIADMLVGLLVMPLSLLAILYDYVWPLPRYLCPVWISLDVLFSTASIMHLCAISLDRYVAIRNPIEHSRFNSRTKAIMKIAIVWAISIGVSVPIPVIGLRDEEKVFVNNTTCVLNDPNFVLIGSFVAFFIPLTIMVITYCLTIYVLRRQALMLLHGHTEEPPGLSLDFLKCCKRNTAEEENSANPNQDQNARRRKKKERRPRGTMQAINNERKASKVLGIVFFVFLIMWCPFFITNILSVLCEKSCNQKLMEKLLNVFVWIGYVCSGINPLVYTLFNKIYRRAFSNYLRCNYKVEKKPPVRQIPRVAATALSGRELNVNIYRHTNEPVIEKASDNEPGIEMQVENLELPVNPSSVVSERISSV

D2 receptor = biological target: T2, D2 receptor (Rattus norvegicus, UniProt P61169); experiment: Functional D2 receptor [35S]GTPγS assay (antagonist mode vs dopamine; basal for agonism); assay type: biochemical; conditions: against 40 µM dopamine, rat striatal homogenate; read-out: D2 receptor antagonistic activity IC50 (95% CI);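 note: [35S]GTPγS binding counted by scintillation after 60 min at 30 °C, nonspecific binding defined with 100 µM unlabeled GTPγS, inhibition curves fitted by one-site nonlinear regression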
T2 construct: 15μg/mL of striatal homogenate was incubated in triplicate; from tissue; host or cells: rat striatum homogenate
T2 sequence (P61169 whole entry): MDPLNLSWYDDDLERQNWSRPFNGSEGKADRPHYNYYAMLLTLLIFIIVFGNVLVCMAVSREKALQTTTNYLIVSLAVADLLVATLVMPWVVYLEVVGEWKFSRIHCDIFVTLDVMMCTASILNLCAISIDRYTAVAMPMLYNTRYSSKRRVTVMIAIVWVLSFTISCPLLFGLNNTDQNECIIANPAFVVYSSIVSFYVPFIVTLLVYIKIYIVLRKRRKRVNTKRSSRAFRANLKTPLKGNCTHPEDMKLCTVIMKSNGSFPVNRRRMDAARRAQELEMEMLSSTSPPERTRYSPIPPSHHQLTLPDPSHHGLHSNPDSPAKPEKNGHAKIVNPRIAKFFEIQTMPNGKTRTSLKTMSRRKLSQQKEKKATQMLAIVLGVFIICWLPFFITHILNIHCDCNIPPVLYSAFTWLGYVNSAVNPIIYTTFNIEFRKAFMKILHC

Chain of 5-HT2A receptor (P14842 whole entry): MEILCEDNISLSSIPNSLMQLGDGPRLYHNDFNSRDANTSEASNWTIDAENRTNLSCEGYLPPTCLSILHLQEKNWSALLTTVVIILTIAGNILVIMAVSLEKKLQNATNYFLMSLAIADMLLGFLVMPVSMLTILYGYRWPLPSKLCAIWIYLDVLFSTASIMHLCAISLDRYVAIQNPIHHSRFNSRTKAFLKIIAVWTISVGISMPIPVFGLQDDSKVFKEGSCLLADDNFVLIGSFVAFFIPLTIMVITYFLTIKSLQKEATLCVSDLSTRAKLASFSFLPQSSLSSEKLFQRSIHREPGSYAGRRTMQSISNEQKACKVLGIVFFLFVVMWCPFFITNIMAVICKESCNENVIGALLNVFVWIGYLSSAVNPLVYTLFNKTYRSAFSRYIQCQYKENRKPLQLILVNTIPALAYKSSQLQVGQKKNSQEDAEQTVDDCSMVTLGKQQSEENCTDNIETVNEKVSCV

Cc1cccc(N2CCN(CCCNC(=O)C3CC4C=CC3C4)CC2)c1C (stereo not drawn) [Norbo-4, endo-N-(3-(4-(2,3-dimethylphenyl)piperazin-1-yl)propyl)bicyclo[2.2.1]hept-5-ene-2-carboxamide]
Ki (5-HT2A receptor): 33.3 nM | immobility time in FST (mice [1]; 3.75 mg/kg i.p.): significant reduction in immobility time; also recorded: significant reduction of immobility time | immobility time in FST (mice [1]; 15 mg/kg i.p.): significant reduction in immobility time; also recorded: significant reduction of immobility time | immobility time in FST (mice [1]; 30 mg/kg i.p.): significant reduction in immobility time | spontaneous locomotor activity (mice [2]; 15 mg/kg i.p., after 6 min of observation): significant decrease in locomotor activity; also recorded: induced the same effect | spontaneous locomotor activity (mice [2]; 15 mg/kg i.p., after 20 min of observation): significant decrease in locomotor activity; also recorded: induced the same effect | spontaneous locomotor activity (mice [2]; 30 mg/kg i.p., after 6 min of observation): significant decrease in locomotor activity | spontaneous locomotor activity (mice [2]; 30 mg/kg i.p., after 20 min of observation): significant decrease in locomotor activity | time on rota-rod (mice [3]): decreased also time on rota-rod; also recorded: impaired motor coordination | time in chimney (mice [4]; 15 mg/kg i.p.): significant increase of time in chimney | time in chimney (mice [4]; 30 mg/kg i.p.): significant increase of time in chimney; also recorded: disturbed the behavior of mice | Ki (human 5-HT2C receptor): 2090 nM | IC50 (D2 receptor): 33100 nM
